{"source": "patent US5760001A", "about": "“Cytokine restraining agents and methods of use in pathologies and conditions associated with altered cytokine levels” (Trega Biosciences, Inc., priority 1995, dated 1998)", "assay_type_in_all_cases": "in vivo", "key": {"female Balb/c mice": {"tested_on": "female Balb/c mice", "assay": "Arachidonic acid-induced ear swelling", "settings": "100 μg/mouse IP 30 min prior to AA; 60 min after AA application", "description": "Experiments were performed using female Balb/c mice weighing 18-23 grams. Saline or 100 μg EX-2 or EX-3 was administered IP, 30 min prior to topical application of arachidonic acid (AA). A 10 μl pipet was used to apply 10 μl AA solution (100 mg/ml ethanol; Calbiochem-Novabiochem; San Diego Calif.) to the inner and outer surfaces of the right ear of each mouse. Ten μl ethanol, alone, was applied to the inner and outer surface of the left ear of each mouse.\nEar thickness was measured with a hand-held spring loaded caliper immediately before and 60 min after AA application. Increase in ear thickness was calculated by subtracting the change observed in the control ear from the change observed in AA-treated ear. The value for each group (saline and control) is the average of the swelling observed in the individual mice in each group. The percent reduction of swelling is based on the swelling observed in the saline control group."}, "Male Shelton rabbits": {"tested_on": "Male Shelton rabbits", "assay": "Morphine-induced respiratory depression", "settings": "10 + 20 + 20 μg/kg/rabbit iv; at end of experiment (80 min)", "description": "Male Shelton rabbits (3-4 kg) were restrained and fitted around the thorax, just behind the front limbs, with a respiration transducer (Model F-RCT; Grass Instruments; Quincy Mass.). The transducer was connected to a grass polygraph via an EKG cable. An intravenous line was established for drug administration by cannulating the marginal ear vein using a 25G butterfly needle.\nRabbit breathing was allowed to stabilize, then. morphine sulfate (2 mg/kg in 0.5 ml saline) was administered by intravenous (iv) injection and respiratory rate and depth were monitored for 10 min. A second dose of morphine was administered, then, after 10 min, EX-2 or EX-3 (10 μg/kg in 0.5 ml saline) was administered, iv, and rabbits were monitored for 20 min. Two additional doses of EX-2 or EX-3 (20 μg/kg in 1.0 ml saline) were administered at 20 min intervals, i.e., 40 min and 60 min after the first morphine injection.\nResults were calculated as the percent change from baseline values and are expressed as the difference of the mean value of the treated group minus the mean value of the control group at the end of the experiment (80 min)."}, "male Sprague-Dawley rats [1]": {"tested_on": "male Sprague-Dawley rats", "assay": "Cyclosporine-induced nephrotoxicity", "settings": "for extracellular fluid volumes (ECF): second study, control 27.6±1.9, CsA and vehicle 27.5±1.7", "description": "In the first study, male Sprague-Dawley rats (n=43) with a weight range of 240-290 g at the initiation of the cyclosporine A (CsA) treatment were divided into 4 weight matched groups. The groups were as follows: (1) Control: no CsA, no EX-2, treatment only with CsA vehicle (PBS) PO and EX-2 vehicle (also PBS) IP; (2) CsA: treatment with CsA (50 mg/kg in PBS administered PO daily at 0830 hr for 9 days) and IP injections of PBS (Ex-2 vehicle); (3) CsA and 50 μg: CsA treatment identical to group 2 with the addition of EX-2 (50 μg/kg IP administered daily at 0800 and 1700 hr in EX-2 vehicle); and (4) CsA and 500 μg: CsA treatment identical to groups 2 and 3, and EX-2 treatment protocol similar to group 3 except that the dose of EX-2 was 500 μg/kg BW. After deep anesthesia was assured, the rats were cannulated in the trachea (PE 240) jugular vein, femoral artery, and bladder (PE 50 for the previous 3 cannulations).After cannulation, infusion of ^3 H-inulin was initiated 50 min prior to the measurement period to assess glomerular filtration rate, renal blood flow and plasma flow. Renal blood flow was determined by the inulin extraction technique. At the end of the study, the kidneys were removed for histological analysis.\nIn the second study, male Sprague-Dawley rats (n=31) with a weight range of 240-290 g at the time of initiation of the cyclosporine treatment were divided into 4 weight-matched groups. The time course and protocol of this study matched the first study with the following exceptions: (1) The daily dose of CsA was reduced to 30 mg/kg and was administered subcutaneously (SC) and (2) the 50 μ/kg dose of EX-2 was substituted with a twice daily dose of 200 μg/kg. The 500 μg/kg dose of EX-2 was repeated in this study. Renal hemodynamics were determined and extracellular fluid volumes were also assessed.\nIn the second studio, where extracellular fluid volumes (ECF) were measured, there were no differences in ECF among control and treatment groups (27.6±1.9 in control, 27.5±1.7 in CsA and vehicle, 26.2±0.9 in CsA+200 μg/kg EX-2, and 25.7±1.4% in CsA+500 μg/kg EX-2).\nThe results from the two experiments are shown in FIGS. 1a and 1b and provide evidence that a cytokine restraining peptide of the present invention reduces cyclosporine-induced nephrotoxicity and the damage caused thereby."}, "male Sprague-Dawley rats [2]": {"tested_on": "male Sprague-Dawley rats", "assay": "Streptozotocin-induced diabetes", "settings": "STZ 65 mg/kg iv; EX-2 150 μg/kg every 8 hr for 72 hr", "description": "Male Sprague-Dawley rats were given 65 mg/kg of streptozotocin (STZ) intravenously through the tall vein. Rats were divided into two groups. The first group was administered EX-2, 150 μg/kg every 8 hr for 72 hr and the second group was a control. Blood samples were withdrawn under ether anesthesia every 8 hr for the first 72 hr, then every 12 hr or 24 hr until the end of the observation period. Plasma samples were assayed for glucose using a glucose assay kit (Trinder, Sigma Chemical Co.). As shown in Table VI below EX-2 effect a 72% reduction in blood glucose levels."}}}
{"substance": "Ac-Nle-Gln-His-(D)Phe-Arg-(D)Trp-Gly-NH2 [EX-2]", "values": [{"measurement": "Reduction in arachidonic acid-induced Ear Swelling", "setting": "female Balb/c mice", "value": 72, "unit": "%"}, {"measurement": "Reduction in Morphine-induced Respiratory Depression", "setting": "Male Shelton rabbits", "value": 50, "unit": "%"}, {"measurement": "changes in ECF as a result of treatment", "setting": "male Sprague-Dawley rats [1]; CsA-treated rats", "value": "no changes"}, {"measurement": "renal blood flow", "setting": "male Sprague-Dawley rats [1]; CsA-treated rats", "value": "not different from control"}, {"measurement": "urinary protein excretion compared to CsA-treated rats", "setting": "male Sprague-Dawley rats [1]; CsA-treated rats", "value": "did not increase"}, {"measurement": "urinary protein excretion normalized to glomerular filtration rate", "setting": "male Sprague-Dawley rats [1]; CsA-treated rats", "value": "trend to decreased"}, {"measurement": "GFR compared to CsA and vehicle controls", "setting": "male Sprague-Dawley rats [1]; both studies, CsA-treated rats", "value": "significantly increased"}, {"measurement": "extracellular fluid volumes (ECF)", "setting": "male Sprague-Dawley rats [1]; CsA 30 mg/kg SC + 200 μg/kg EX-2 twice daily", "value": "26.2±0.9", "unit": "%"}, {"measurement": "extracellular fluid volumes (ECF)", "setting": "male Sprague-Dawley rats [1]; CsA 30 mg/kg SC + 500 μg/kg EX-2 twice daily", "value": "25.7±1.4", "unit": "%"}, {"measurement": "STZ Diabetes: Blood Glucose (mg/dl), % Reduction of induced increase", "setting": "male Sprague-Dawley rats [2]", "value": 72, "unit": "%"}]}
